For eight molecules, Ki results are on record in patent publication US10233188B2, “CDK2/4/6 inhibitors” (priority 2016, dated 2019).

In one assay the target is CDK2/Cyclin E1 (Homo sapiens (Human), UniProt P24941). Briefly: biochemical. The conditions noted are these: CDK2_Ki (nM), phosphorylated CDK2/Cyclin E1, 150 μM ATP, Morrison tight-binding fit.
The next assay deals with CDK6/Cyclin D1 (Homo sapiens (Human), UniProt Q00534). The assay is described as follows: biochemical. The conditions noted are these: CDK6_Ki (nM), non-phosphorylated CDK6/Cyclin D1, 2 mM ATP, Morrison fit.
Chain of CDK6/Cyclin D1 (Q00534 whole entry): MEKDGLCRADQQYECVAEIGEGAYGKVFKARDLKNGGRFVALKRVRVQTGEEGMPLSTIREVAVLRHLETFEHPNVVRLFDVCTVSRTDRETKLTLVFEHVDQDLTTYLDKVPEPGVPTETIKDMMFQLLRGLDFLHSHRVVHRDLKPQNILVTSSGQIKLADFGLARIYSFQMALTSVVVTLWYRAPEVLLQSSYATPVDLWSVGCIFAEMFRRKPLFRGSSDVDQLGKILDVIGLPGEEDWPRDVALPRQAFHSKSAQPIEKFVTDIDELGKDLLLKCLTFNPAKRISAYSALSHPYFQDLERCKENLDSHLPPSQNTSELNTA
Chain of CDK6/Cyclin D1 (P24385 whole entry partner): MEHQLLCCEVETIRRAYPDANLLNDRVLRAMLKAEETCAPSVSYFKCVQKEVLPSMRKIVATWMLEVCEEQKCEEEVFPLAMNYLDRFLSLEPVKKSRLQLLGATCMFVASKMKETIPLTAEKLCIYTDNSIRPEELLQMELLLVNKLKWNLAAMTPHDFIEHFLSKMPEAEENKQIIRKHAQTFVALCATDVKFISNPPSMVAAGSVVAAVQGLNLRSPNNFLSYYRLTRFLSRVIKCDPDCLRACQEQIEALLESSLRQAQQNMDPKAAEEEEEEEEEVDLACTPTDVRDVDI

Protocol for CDK2/Cyclin E1: The assay was initiated with the addition of ATP, following a fifteen minutes pre-incubation of enzyme and inhibitor at room temperature in the reaction mixture. The reaction was stopped after 45 minutes at room temperature by the addition of 50 μL of 80 mM EDTA, pH 7.5.

For `Cc1cc2cnc(NC3CCN(S(=O)(=O)NC4CCOCC4)CC3)nc2n([C@@H]2CCC[C@@]2(C)O)c1=O` (single isomer, unassigned) [Example 96, (−)-4-({8-[(1R*,2R*)-2-hydroxy-2-methylcyclopentyl]-6-methyl-7-oxo-7,8-dihydropyrido[2,3-d]pyrimidin-2-yl}amino)-N-(tetrahydro-2H-pyran-4-yl)piperidine-1-sulfonamide], the Ki at CDK2/Cyclin E1 turned out to be 0.24 nM; on CDK6/Cyclin D1 it was 1.06 nM.
For `Cc1cc2cnc(NC3CCN(S(=O)(=O)NC4CCOCC4)CC3)nc2n([C@H]2CCC[C@]2(C)O)c1=O` (single isomer, unassigned) [Example 97, (+)-4-({8-[(1R*,2R*)-2-hydroxy-2-methylcyclopentyl]-6-methyl-7-oxo-7,8-dihydropyrido[2,3-d]pyrimidin-2-yl}amino)-N-(tetrahydro-2H-pyran-4-yl)piperidine-1-sulfonamide], the Ki at CDK2/Cyclin E1 worked out at 2.47 nM; on CDK6/Cyclin D1 it was 11.8 nM.
For the molecule `COC(C)(C)CNS(=O)(=O)N1CCC(Nc2ncc3cc(C)c(=O)n([C@@H]4CCC[C@@]4(C)O)c3n2)CC1` (single isomer, unassigned) [Example 98, (−)-4-({8-[(1R*,2R*)-2-hydroxy-2-methylcyclopentyl]-6-methyl-7-oxo-7,8-dihydropyrido[2,3-d]pyrimidin-2-yl}amino)-N-(2-methoxy-2-methylpropyl)piperidine-1-sulfonamide], the figures for the Ki at CDK2/Cyclin E1 and at CDK6/Cyclin D1 were 0.33 nM and 0.74 nM, respectively.
Taken in the same sequence, the figures for `COC(C)(C)CNS(=O)(=O)N1CCC(Nc2ncc3cc(C)c(=O)n([C@H]4CCC[C@]4(C)O)c3n2)CC1` (single isomer, unassigned) [Example 99, (+)-4-({8-[(1R*,2R*)-2-hydroxy-2-methylcyclopentyl]-6-methyl-7-oxo-7,8-dihydropyrido[2,3-d]pyrimidin-2-yl}amino)-N-(2-methoxy-2-methylpropyl)piperidine-1-sulfonamide] were 2.88 nM and 14.3 nM.
Taken in the same sequence, the figures for `Cc1cc2cnc(NC3CCN(S(=O)(=O)NCC(C)(F)F)CC3)nc2n([C@@H]2CCC[C@@]2(C)O)c1=O` (single isomer, unassigned) [Example 104, (−)-N-(2,2-difluoropropyl)-4-({8-[(1R*,2R*)-2-hydroxy-2-methylcyclopentyl]-6-methyl-7-oxo-7,8-dihydropyrido[2,3-d]pyrimidin-2-yl}amino)piperidine-1-sulfonamide] were 0.14 nM and 0.77 nM.
Taken in the same sequence, the figures for `Cc1cc2cnc(NC3CCN(S(=O)(=O)NCC(C)(F)F)CC3)nc2n([C@H]2CCC[C@]2(C)O)c1=O` (single isomer, unassigned) [Example 105, (+)-N-(2,2-difluoropropyl)-4-({8-[(1R*,2R*)-2-hydroxy-2-methylcyclopentyl]-6-methyl-7-oxo-7,8-dihydropyrido[2,3-d]pyrimidin-2-yl}amino)piperidine-1-sulfonamide] were 3.35 nM and 22.7 nM.
As to `CCS(=O)(=O)N1CCC(Nc2ncc3cc(C)c(=O)n([C@@H]4CCC[C@@]4(C)O)c3n2)CC1` (single isomer, unassigned) [Example 110, (−)-2-{[1-(ethylsulfonyl)piperidin-4-yl]amino}-8-[(1R*,2R*)-2-hydroxy-2-methylcyclopentyl]-6-methylpyrido[2,3-d]pyrimidin-7(8H)-one], the inhibition constant Ki at CDK2/Cyclin E1 was 0.1 nM; at CDK6/Cyclin D1, 0.28 nM.
For `CCS(=O)(=O)N1CCC(Nc2ncc3cc(C)c(=O)n([C@H]4CCC[C@]4(C)O)c3n2)CC1` (single isomer, unassigned) [Example 111, (+)-2-{[1-(ethylsulfonyl)piperidin-4-yl]amino}-8-[(1R*,2R*)-2-hydroxy-2-methylcyclopentyl]-6-methylpyrido[2,3-d]pyrimidin-7(8H)-one], in that order: 2.14 nM and 4.9 nM.
